Data: US20230122911A1, “FORMULATIONS OF ENZALUTAMIDE” (Astellas Pharma Inc., priority 2012, published 2023)
Converted amounts (≈) assume the structure as drawn.

Legend:
physchem = conditions: USP phosphate buffer (pH 6.8), pH 6.8, aqueous buffer, kinetic from dmso stock
[1] = Solubility test with polymers (Example 24); conditions: USP phosphate buffer (pH 6.8), pH 6.8, aqueous buffer, kinetic from dmso stock, after 5 min

With `CNC(=O)c1ccc(N2C(=S)N(c3ccc(C#N)c(C(F)(F)F)c3)C(=O)C2(C)C)cc1F` [enzalutamide, 4-{3-[4-cyano-3-(trifluoromethyl)phenyl]-5,5-dimethyl-4-oxo-2-sulfanylideneimidazolidin-1-yl}-2-fluoro-N-methylbenzamide] the solubility at 5 min (physchem) was 31.1 µg/mL (≈ 67 µM), the solubility at 5 min ([1]; with copolyvidone) was 47.4 µg/mL (≈ 102 µM) and the solubility at 5 min ([1]; with hydroxypropylmethylcellulose 2910 (TC-5E)) was 42.7 µg/mL (≈ 91.9 µM). The solubility at 5 min ([1]; with hydroxypropylmethylcellulose 2910 (TC-5R)) was 39.2 µg/mL (≈ 84.4 µM), the solubility at 5 min ([1]; with polyvinylpyrrolidone) was 40.1 µg/mL (≈ 86.3 µM) and the solubility at 5 min ([1]; without polymer) was 29 µg/mL (≈ 62.4 µM).
